Laboratory results reported in PubChem BioAssay (NCI).
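48-hour exposure; five concentrations; linearly interpolated endpoints. The concentration for 50% growth inhibition is given as GI50. TGI denotes the concentration required for complete inhibition of growth.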

Legend:
Experiment in all cases: NCI-60 cell line screen, 48 h; in the data active means GI50 below about 0.43 µM; inactive means the rest
786-0 renal = test system: 786-0 renal
A498 renal = test system: A498 renal
A549 NSCLC = test system: A549 NSCLC
ACHN renal = test system: ACHN renal
CAKI-1 renal = test system: CAKI-1 renal
CCRF-CEM leukemia = test system: CCRF-CEM leukemia
COLO 205 colon = test system: COLO 205 colon
DU-145 prostate = test system: DU-145 prostate
EKVX NSCLC = test system: EKVX NSCLC
HCC-2998 colon = test system: HCC-2998 colon
HCT-116 colon = test system: HCT-116 colon
HCT-15 colon = test system: HCT-15 colon
HL-60(TB) leukemia = test system: HL-60(TB) leukemia
HOP-62 NSCLC = test system: HOP-62 NSCLC
HOP-92 NSCLC = test system: HOP-92 NSCLC
HS 578T breast = test system: HS 578T breast
HT29 colon = test system: HT29 colon
IGROV1 ovarian = test system: IGROV1 ovarian
K-562 leukemia = test system: K-562 leukemia
KM12 colon = test system: KM12 colon
LOX IMVI melanoma = test system: LOX IMVI melanoma
M14 melanoma = test system: M14 melanoma
MALME-3M melanoma = test system: MALME-3M melanoma
MCF7 breast = test system: MCF7 breast
MDA-MB-231 breast = test system: MDA-MB-231 breast
MDA-MB-435 = test system: MDA-MB-435
MOLT-4 leukemia = test system: MOLT-4 leukemia
NCI-H226 lung = test system: NCI-H226 lung
NCI-H23 lung = test system: NCI-H23 lung
NCI-H460 lung = test system: NCI-H460 lung
NCI-H522 lung = test system: NCI-H522 lung
OVCAR-3 ovarian = test system: OVCAR-3 ovarian
OVCAR-4 ovarian = test system: OVCAR-4 ovarian
OVCAR-5 ovarian = test system: OVCAR-5 ovarian
OVCAR-8 ovarian = test system: OVCAR-8 ovarian
PC-3 prostate = test system: PC-3 prostate
RPMI-8226 leukemia = test system: RPMI-8226 leukemia
RXF 393 renal = test system: RXF 393 renal
SF-268 CNS = test system: SF-268 CNS
SF-295 CNS = test system: SF-295 CNS
SF-539 CNS = test system: SF-539 CNS
SK-MEL-2 melanoma = test system: SK-MEL-2 melanoma
SK-MEL-28 melanoma = test system: SK-MEL-28 melanoma
SK-MEL-5 melanoma = test system: SK-MEL-5 melanoma
SK-OV-3 ovarian = test system: SK-OV-3 ovarian
SN12C renal = test system: SN12C renal
SNB-19 CNS = test system: SNB-19 CNS
SNB-75 CNS = test system: SNB-75 CNS
SR leukemia = test system: SR leukemia
SW-620 colon = test system: SW-620 colon
T-47D breast = test system: T-47D breast
TK-10 renal = test system: TK-10 renal
U251 CNS = test system: U251 CNS
UACC-257 melanoma = test system: UACC-257 melanoma
UACC-62 melanoma = test system: UACC-62 melanoma
UO-31 renal = test system: UO-31 renal

COc1ccc(Cn2cc3c(c2-c2ccccc2)CC(C)(C)c2cnoc2-3)cc1
7.91 µM: TGI (HS 578T breast)
53.6 µM: TGI (SK-MEL-2 melanoma)
inactive: GI50 (786-0 renal) 4.1 µM | GI50 (A498 renal) 1.4 µM | GI50 (A549 NSCLC) 3.17 µM | GI50 (ACHN renal) 5.06 µM | GI50 (CAKI-1 renal) 1.22 µM | GI50 (CCRF-CEM leukemia) 2.47 µM | GI50 (COLO 205 colon) 1.65 µM | GI50 (DU-145 prostate) 1.78 µM | GI50 (EKVX NSCLC) 1.99 µM | GI50 (HCC-2998 colon) 2.91 µM | GI50 (HCT-116 colon) 1.47 µM | GI50 (HCT-15 colon) 1.02 µM | GI50 (HL-60(TB) leukemia) 0.82 µM | GI50 (HOP-62 NSCLC) 4.05 µM | GI50 (HOP-92 NSCLC) 1.96 µM | GI50 (HS 578T breast) 1.45 µM | GI50 (HT29 colon) 0.95 µM | GI50 (IGROV1 ovarian) 2.3 µM | GI50 (KM12 colon) 0.783 µM | GI50 (LOX IMVI melanoma) 3.55 µM | GI50 (M14 melanoma) 2.03 µM | GI50 (MALME-3M melanoma) 1.63 µM | GI50 (MCF7 breast) 0.87 µM | GI50 (MDA-MB-231 breast) 3.46 µM | GI50 (MOLT-4 leukemia) 2.82 µM | GI50 (NCI-H226 lung) 4.19 µM | GI50 (NCI-H23 lung) 2.29 µM | GI50 (NCI-H460 lung) 2.17 µM | GI50 (OVCAR-3 ovarian) 0.662 µM | GI50 (OVCAR-4 ovarian) 5.23 µM | GI50 (OVCAR-5 ovarian) 4.39 µM | GI50 (OVCAR-8 ovarian) 4.66 µM | GI50 (PC-3 prostate) 3.27 µM | GI50 (RPMI-8226 leukemia) 3.09 µM | GI50 (RXF 393 renal) 2.45 µM | GI50 (SF-268 CNS) 3.92 µM | GI50 (SF-295 CNS) 0.732 µM | GI50 (SF-539 CNS) 2.18 µM | GI50 (SK-MEL-2 melanoma) 2.9 µM | GI50 (SK-MEL-28 melanoma) 6.86 µM | GI50 (SK-MEL-5 melanoma) 1.6 µM | GI50 (SK-OV-3 ovarian) 4.09 µM | GI50 (SN12C renal) 4.46 µM | GI50 (SNB-19 CNS) 4.96 µM | GI50 (SNB-75 CNS) 1.63 µM | GI50 (SR leukemia) 0.483 µM | GI50 (SW-620 colon) 0.806 µM | GI50 (T-47D breast) 2.51 µM | GI50 (TK-10 renal) 2.91 µM | GI50 (U251 CNS) 2.99 µM | GI50 (UACC-257 melanoma) 9.64 µM | GI50 (UACC-62 melanoma) 0.958 µM | GI50 (UO-31 renal) 3.08 µM
5.1 µM: TGI (COLO 205 colon)
9.61 µM: TGI (SK-MEL-5 melanoma)
11.6 µM: TGI (SF-295 CNS)
7.5 µM: TGI (DU-145 prostate)
32.7 µM: TGI (HOP-92 NSCLC)
1.9 µM: TGI (NCI-H522 lung)
active: GI50 (K-562 leukemia) 0.377 µM | GI50 (MDA-MB-435) 0.279 µM | GI50 (NCI-H522 lung) 0.314 µM
7.72 µM: TGI (A498 renal)
> 100 µM: TGI (786-0 renal) | TGI (A549 NSCLC) | TGI (ACHN renal) | TGI (CAKI-1 renal) | TGI (CCRF-CEM leukemia) | TGI (EKVX NSCLC) | TGI (HCC-2998 colon) | TGI (HCT-116 colon) | TGI (HCT-15 colon) | TGI (HOP-62 NSCLC) | TGI (IGROV1 ovarian) | TGI (K-562 leukemia) | TGI (KM12 colon) | TGI (LOX IMVI melanoma) | TGI (M14 melanoma) | TGI (MALME-3M melanoma) | TGI (MCF7 breast) | TGI (MDA-MB-231 breast) | TGI (MOLT-4 leukemia) | TGI (NCI-H226 lung) | TGI (NCI-H23 lung) | TGI (NCI-H460 lung) | TGI (OVCAR-4 ovarian) | TGI (OVCAR-5 ovarian) | TGI (OVCAR-8 ovarian) | TGI (PC-3 prostate) | TGI (RPMI-8226 leukemia) | TGI (RXF 393 renal) | TGI (SF-268 CNS) | TGI (SK-MEL-28 melanoma) | TGI (SK-OV-3 ovarian) | TGI (SN12C renal) | TGI (SNB-19 CNS) | TGI (SR leukemia) | TGI (SW-620 colon) | TGI (T-47D breast) | TGI (TK-10 renal) | TGI (U251 CNS) | TGI (UACC-257 melanoma) | TGI (UACC-62 melanoma) | TGI (UO-31 renal)
7.53 µM: TGI (HT29 colon)
1.01 µM: TGI (MDA-MB-435)
6.15 µM: TGI (SNB-75 CNS)
6.02 µM: TGI (SF-539 CNS)
4.29 µM: TGI (HL-60(TB) leukemia)
3.28 µM: TGI (OVCAR-3 ovarian)
